The source of these data is the METLIN SMRT retention time set (Domingo-Almenara et al. 2019).

The data set is described as follows: gradient 5% acetonitrile 3 min, to 50% in 2 min, to 85% in 15 min, held 3 min, 100 µL/min. The note with it: column: Zorbax Extend-C18 2.1 x 50 mm; eluents: water / acetonitrile, 0.1% formic acid. An outline of the steps: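 Standards, all pure, were combined into mixtures of ~100 molecules and run at 100 μL/min on a Zorbax Extend-C18 column (2.1 × 50 mm, 1.8 μm) with water and acetonitrile, each containing 0.1% formic acid. A coupled quadrupole time-of-flight mass spectrometer operated in positive and negative ionization mode. Retention time values come from computationally picked adduct peaks, each inspected manually.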
Consider `Fc1ccc(C2Cn3nnc(-c4nc(-c5ccccc5Cl)no4)c3CO2)cc1` (stereo not drawn), for which the RP-LC retention time stood at 1170 s. The same measure for `Cc1cc2c(C)c(C(=O)N3CCCCC3)oc2c(S(=O)(=O)N2CCN(c3ncccn3)CC2)c1C`: 1100 s; for `Cc1nnc2cc(N3CCN(S(=O)(=O)c4ccc(F)cc4)CC3)cnn12`: 670 s.

Take `CCOc1ccc(N2CC(NC(=O)Nc3ccc(OC(F)F)cc3)CC2=O)cc1` (stereo not drawn): the RP-LC retention time stood at 754 s. In the case of `CC1SC(C)C(=O)N(CC(=O)NCCc2ccccc2)C1=O` (stereo not drawn), the RP-LC retention time stood at 764 s. For `COc1ccc(S(=O)(=O)Nc2nc(C(=O)Nc3cccc(Cl)c3)cs2)cc1` the value was 844 s; for `O=C(Cc1ccccc1)N1CCN(c2nc(CN3CCOCC3)cs2)CC1`, 614 s; for `O=C(NC1CCCCC1)N1CCC(c2nc(C3CCOCC3)no2)CC1`, 733 s. The same measure for `Cc1cccc(N2CCN(C(=O)c3cn4ccccc4n3)CC2)c1C`: 776 s. The same measure for `COC(=O)c1ccc2c(=O)n(Cc3ccccc3)c(N3CCOCC3)nc2c1`: 953 s; for `Cc1c(CC(=O)N2CCC(C(N)=O)CC2)c(=O)oc2cc3oc4c(c3cc12)CCCC4`: 764 s.

`O=C(c1ccc2cc[nH]c2c1)N1CCC(c2nc(-c3ccccc3)no2)C1` (stereo not drawn) displayed an RP-LC retention time of 866 s.

In turn, `O=C1CC(c2noc(-c3ccccc3)n2)CN1c1ccc(F)c(Cl)c1` (stereo not drawn) displayed an RP-LC retention time of 1070 s.

In turn, `COCc1nc(-c2ccc(OC3CN(Cc4cccs4)C3)cc2)no1` displayed an RP-LC retention time of 661 s. Compound `COc1ccc(-c2csc(NC(=O)CS(=O)(=O)c3ccc(Cl)cc3)n2)c(OC)c1` gave an RP-LC retention time of 1020 s. The compound `Cc1ccc(C)c(N2CCN(C(=O)C3CCCN(c4nc5ccccc5n(C)c4=O)C3)CC2)c1` (stereo not drawn) came in with an RP-LC retention time of 1280 s. Take `CCN1CCN(C(=O)c2nnc(-c3ccc(S(=O)(=O)N4CCCCC4)cc3)o2)CC1`: the RP-LC retention time came to 665 s. In turn, `Cc1cccc(NS(=O)(=O)c2cc(-c3[nH]ncc3C(=O)N3CCCC3)oc2C)c1C` gave an RP-LC retention time of 725 s. `O=c1ccn(-c2cccc(F)c2)nc1-c1nc(-c2ccc(F)cc2)no1` had an RP-LC retention time of 902 s. In turn, `COc1ccc(-c2nc(-c3ccc(S(=O)(=O)N4CCCCC4)cc3)no2)cc1` registered an RP-LC retention time of 1280 s. `COc1ncccc1CN(C)C(=O)COc1ccccc1`: the RP-LC retention time stood at 568 s. For `COc1ccc(N2C(=O)CCC(C(=O)N3CC(C)CC(C)C3)C2c2ccc(F)cc2)cc1` (stereo not drawn) the value was 896 s; for `Cc1cccc(OCc2nnc(SCC(=O)Nc3nc(-c4ccccc4)c(C)s3)o2)c1`, 932 s. With `O=C(CC1CCCC1)NCCC1CCN(C(=O)Nc2cc(F)cc(F)c2)CC1`, the RP-LC retention time was 905 s. For `CN(C)C(=O)CN1CCN(c2ccccc2)CC1` the value was 792 s. In turn, `COC(=O)c1ccc(NC(=O)N2CCC(n3cnc4cccnc43)CC2)cc1` displayed an RP-LC retention time of 652 s. `Cc1cc(OCC(=O)Nc2ccc3c(c2)OCO3)nc(-c2ccc(F)cc2)n1` showed an RP-LC retention time of 960 s.

Compound `COC(=O)c1cccc(Nc2c(-c3ccc(SC)cc3)nc3cnccn23)c1` had an RP-LC retention time of 887 s.

`COc1cccc(C2Cn3nnc(-c4nc(-c5ccc(OC(F)(F)F)cc5)no4)c3CO2)c1` (stereo not drawn) showed an RP-LC retention time of 1310 s.

Consider `Cc1nc2c(ccc3nc(NC(=O)c4cc(=O)c5ccccc5o4)sc32)s1`, for which the RP-LC retention time worked out at 828 s.

In the case of `Cc1ccc(NC(=O)C2CCN(S(=O)(=O)c3cc(C(=O)N4CCCC4)cs3)CC2)cc1`, the RP-LC retention time amounted to 830 s. For the compound `Cc1cc(Cl)ccc1NC(=O)C1CCN(S(=O)(=O)c2c(C)nn(-c3ccccc3)c2C)CC1`, the RP-LC retention time is 1020 s.

`Cc1ccc(Cl)cc1NC(=O)N1CCCC(C)(C(=O)NCc2ccccc2)C1` (stereo not drawn) came in with an RP-LC retention time of 1040 s. As for `Cc1ccn2c(NC(=O)c3c(F)cccc3Cl)c(-c3ccc(F)cc3)nc2c1`, the RP-LC retention time was found to be 701 s. The same measure for `O=C(CCc1c[nH]c2ccccc12)Nc1ccc(-c2nnc3n2CCCC3)cc1`: 704 s.

Compound `Cc1cc(C)cc(C(=O)N2CCC3(CC2)NC(=O)c2cc(F)ccc2N3C)c1` came in with an RP-LC retention time of 787 s. Turning to `Cc1ccc(NC(=O)Cn2c(C)nc3c(sc4nc(-c5ccccc5)ccc43)c2=O)cc1`, the RP-LC retention time was found to be 1060 s.

For the compound `COc1ccc(C)cc1NC(=O)N1CCN(c2ccc(=O)n(-c3ccc(C)cc3)n2)CC1`, the RP-LC retention time stood at 915 s. For `O=C(Nc1cnc(-c2cccc(Cl)c2)nc1)c1cccs1` the value was 1070 s; for `Cn1c(CNC(=O)CCc2cc3ccccc3[nH]c2=O)nc2ccccc21`, 601 s; for `COC(=O)C1=C(N)OC2=C(C(=O)CC(C)(C)C2)C1c1cccs1` (stereo not drawn), 821 s. The same measure for `Cc1nc(-c2ccc(C(=O)NCc3cccnc3)cc2)cs1`: 612 s; for `CCC1CCCCN1CCNC(=O)c1sc2cccc(F)c2c1OC` (stereo not drawn): 700 s; for `CN(Cc1ccccc1)C(=O)C1CCN(S(=O)(=O)c2ccc(-c3noc(C4CC4)n3)cc2)CC1`: 1100 s. Turning to `CCCc1ccc(S(=O)(=O)N2CCC(n3cnc4c(C)cccc4c3=O)CC2)cc1`, the RP-LC retention time stood at 640 s. Regarding `CCn1nc(N2CCCC(NS(=O)(=O)c3ccc(F)c(Cl)c3)C2)ccc1=O` (stereo not drawn), the RP-LC retention time came to 817 s. The same measure for `CC(=O)N(Cc1ccc(F)cc1)Cc1ccc2c(c1)CN(C(=O)C(C)C)CCO2`: 804 s; for `O=C(COc1ccccc1)Nc1c(C(=O)N2CCN(c3ccccn3)CC2)oc2ccccc12`: 760 s. The same measure for `Cc1ccc(C(=O)NC2CCN(c3cc(-c4cccs4)[nH]n3)C2)cc1C` (stereo not drawn): 726 s.

`CN(C)C[C@@H]1CN(c2ncccn2)C[C@H]1NS(=O)(=O)c1cccc(C#N)c1` registered an RP-LC retention time of 601 s. The same measure for `O=C(c1ccsc1)N1CCC2(CC1)NCc1ccccc1-n1ccnc12`: 588 s; for `CCCCn1nc2c(S(=O)(=O)N3CCc4ccccc4C3)cccn2c1=O`: 914 s; for `CCCC(C)c1nnc(NC(=O)C2CCN(C(=O)c3cccc(F)c3)CC2)s1` (stereo not drawn): 831 s. For `O=C1COc2ccc(-c3csc(NC(=O)C4CCCCC4)n3)cc2N1` the value was 884 s. `C[C@@H]1CN(C(=O)c2cccs2)C[C@H]1c1nc(-c2ccccc2)no1`: the RP-LC retention time came to 965 s. For `O=c1c(NCCC2=CCCCC2)nc2ccncc2n1Cc1ccccc1` the value was 818 s; for `CCOc1ccc(NC(=O)C2CCCN2S(=O)(=O)c2ccc(OCC)cc2)cc1` (stereo not drawn), 967 s; for `O=S(=O)(c1ccc2nc(N3CCN(C4CCCCC4)CC3)ccc2c1)N1CCCCC1`, 734 s. For `COc1ccc(CNS(=O)(=O)c2ccccc2-c2nc(-c3ccc(F)cc3)no2)cc1` the value was 1160 s.

Turning to `O=C(Cn1c(=O)c2cccn2c2ccccc21)Nc1cccc(C(F)(F)F)c1`, the RP-LC retention time came to 880 s. For `CC1CCN(C(=O)CN2C(=O)COc3ccc(C(=O)N4CCCCC4)cc32)CC1` the value was 716 s; for `COc1ccc(-c2csc(NC(=O)CS(=O)(=O)c3ccc(Cl)cc3)n2)cc1`, 1010 s. For `CC(c1ccccc1)N1CC(=O)N(c2ccc(Cl)cc2)[C@@H]2CS(=O)(=O)C[C@@H]21` (stereo partly drawn) the value was 853 s.

Take `COc1ccc(N2CC(C(=O)NC(C(=O)N3CCCc4ccccc43)c3ccccc3)CC2=O)cc1` (stereo not drawn): the RP-LC retention time turned out to be 900 s. For `COc1ccc(Nc2nc(N)nc(CSc3nnc4sc5ccccc5n34)n2)cc1`, the RP-LC retention time worked out at 692 s. Consider `COc1ccc(CC(=O)NCC2CCN(C(=O)c3cc4ccccc4o3)CC2)cc1OC`, for which the RP-LC retention time amounted to 703 s. For `O=C(Cc1ccsc1)NC1CCN(c2ccc(=O)n(CCOc3ccccc3)n2)C1` (stereo not drawn) the value was 750 s; for `CC(C)COc1cc(=O)n2c(c1C(=O)NCCCN1CCOCC1)CCCCC2`, 570 s.

Turning to `Cc1cc(S(=O)(=O)N2CCC(n3cnnc3C(C)C)CC2)ccc1F`, the RP-LC retention time amounted to 751 s. Compound `O=C(Cc1c(F)cccc1Cl)N1CCN(c2cc(-c3cccs3)[nH]n2)CC1` showed an RP-LC retention time of 840 s. The same measure for `O=C(NCc1[nH]nc2ccccc12)c1ccoc1`: 655 s; for `Cc1nc(N2CCOCC2)c2c(C(=O)N3CCCc4ccccc43)c(C)oc2n1`: 853 s.

Compound `CCc1sc(NC(=O)c2cc(C)on2)nc1-c1ccccc1` gave an RP-LC retention time of 1060 s. For `COc1cc(N)c(Cl)cc1C(=O)OCCN1CCCCC1` the value was 629 s; for `O=C(C1CCCN(c2ncnc3c2nc2n3CCCCC2)C1)N(Cc1ccco1)C1CCCC1` (stereo not drawn), 950 s. As to `CCOc1ccccc1NC(=O)N1CCC(n2c(C(F)(F)F)nc3cccnc32)CC1`, the RP-LC retention time stood at 976 s. For `CCOC(=O)c1c(S(=O)(=O)N2CCC(C(=O)Nc3ccc(C)c(F)c3)CC2)c(C)n(C)c1C` the value was 924 s. For `CCOC(=O)N1CCN(C(=O)Cn2cnc(-c3ccc(OC)cc3)cc2=O)CC1` the value was 652 s.
